From patent US20200353438A1, “METHOD OF FABRICATING CELL ARRAYS AND USES THEREOF” (StemoniX Inc., priority 2014, published 2020)

Tested on: beating H9 embryonic stem cell derived cardiomyocytes
Test: Drug dosing of beating cardiomyocyte hydrogel array, observed by camera
Assay type: cell-based
Conditions: 1×16 GelMa array after 3 days incubation, visual camera observation
Protocol: In one example, a Labcyte Echo Model 555 nano liter sonic dispensing system was used to deliver 2 heart drugs, Satolol an Antiarrhythmic drug and Isoproteronol a […], to the fabricated array. The drugs were diluted to 2.25 uM in cell media nutrient solution to prevent dehydration. The Echo 555 liquid handler revolutionizes liquid handling with acoustic energy. Sound waves eject precisely sized droplets from a source onto a microplate, slide or other surface suspended above the source. […] Fluids are transferred in nanoliter increments. Larger volumes are transferred at the rate of hundreds of droplets per second. By using this non contact method it minimizes any contact that could damage or kill the cells as found in other dispensing methods. It also allows for the use of very small quantities thus allowing users to screen molecules that are scarce or difficult to manufacture thus reducing cost. In addition, the X and Y position of the dispensing head can be precisely located over the N×N array location of interest thereby allowing different locations to have a drug of interest administered.
beating H9 embryonic stem cell derived cardiomyocytes were used on day 25 of differentiation. After disassociation a vial with 1 mL of suspension was produced. […] Within those it was determined that 8.38×10^5 live cells were present with tryptan blue. […]

Structure (SMILES) | increase in the heart cells beating (dosing with 10 nM) | effect on refectory period (pause in beating) of irregularly beating heart cells
CC(C)NCC(O)c1ccc(NS(C)(=O)=O)cc1 (centres unmarked) [Satolol] | 30-40% | 
CC(C)NCC(O)c1ccc(O)c(O)c1 (centres unmarked) [Isoproteronol] |  | removed the refectory period (pause in beating) of some irregularly beating heart cells
